# Data reported in US20240350469A1, “TREATMENT OF LOWER RESPIRATORY TRACT INFECTION WITH TRADIPITANT” (Vanda Pharmaceuticals Inc., priority 2021, published 2024).
# Test system: severe or critical COVID-19 infection
# Assay: Randomized, double-blind, placebo-controlled study of tradipitant in hospitalized patients with COVID-19 pneumonia (interim analysis, ITT)
# Format: in vivo
# Settings: for Ordinal Score at Day 7 = 7 (Not hospitalized), no. of patients / Ordinal Score at Day 28 = 1 (Death), % of patients / Ordinal Score at Day 28 = 1 (Death), no. of patients / Ordinal Score at Day 28 = 2 (Hospitalized, on invasive mechanical ventilation or ECMO), % of patients / Ordinal Score at Day 28 = 2 (Hospitalized, on invasive mechanical ventilation or ECMO), no. of patients / Ordinal Score at Day 28 = 3 (Hospitalized, on non-invasive ventilation or high flow oxygen devices), % of patients / Ordinal Score at Day 28 = 3 (Hospitalized, on non-invasive ventilation or high flow oxygen devices), no. of patients / Ordinal Score at Day 28 = 4 (Hospitalized, requiring supplemental oxygen), % of patients / Ordinal Score at Day 28 = 4 (Hospitalized, requiring supplemental oxygen), no. of patients / Ordinal Score at Day 28 = 7 (Not hospitalized), % of patients / Ordinal Score at Day 28 = 7 (Not hospitalized), no. of patients / No. of deaths by day 7 / No. of deaths by day 28 / Ordinal Score at Day 7 = 1 (Death), % of patients / Ordinal Score at Day 7 = 1 (Death), no. of patients / Ordinal Score at Day 7 = 2 (Hospitalized, on invasive mechanical ventilation or ECMO), % of patients / Ordinal Score at Day 7 = 2 (Hospitalized, on invasive mechanical ventilation or ECMO), no. of patients / Ordinal Score at Day 7 = 3 (Hospitalized, on non-invasive ventilation or high flow oxygen devices), % of patients / Ordinal Score at Day 7 = 3 (Hospitalized, on non-invasive ventilation or high flow oxygen devices), no. of patients / Ordinal Score at Day 7 = 4 (Hospitalized, requiring supplemental oxygen), % of patients / Ordinal Score at Day 7 = 4 (Hospitalized, requiring supplemental oxygen), no. of patients / Ordinal Score at Day 7 = 5 (Hospitalized, not requiring supplemental oxygen), % of patients / Ordinal Score at Day 7 = 5 (Hospitalized, not requiring supplemental oxygen), no. of patients / Ordinal Score at Day 7 = 7 (Not hospitalized), % of patients: ITT
# [1] = ordinal score at baseline 3, tradipitant N = 13
# [2] = ordinal score at baseline 4, tradipitant N = 9
compound,measurement,setting,value
O=C(c1ccccc1Cl)c1cccnc1-c1nnn(Cc2cc(C(F)(F)F)cc(C(F)(F)F)c2)c1-c1ccncc1 [Tradipitant],"Ordinal Score at Day 7 = 7 (Not hospitalized), no. of patients",[1],1
same,"Ordinal Score at Day 28 = 1 (Death), % of patients",[1],(7.7) %
same,"Ordinal Score at Day 28 = 1 (Death), no. of patients",[1],1
same,"Ordinal Score at Day 28 = 2 (Hospitalized, on invasive mechanical ventilation or ECMO), % of patients",[1],(61.5) %
same,"Ordinal Score at Day 28 = 2 (Hospitalized, on invasive mechanical ventilation or ECMO), no. of patients",[1],8
same,"Ordinal Score at Day 28 = 3 (Hospitalized, on non-invasive ventilation or high flow oxygen devices), % of patients",[1],(0.0) %
same,"Ordinal Score at Day 28 = 3 (Hospitalized, on non-invasive ventilation or high flow oxygen devices), no. of patients",[1],0
same,"Ordinal Score at Day 28 = 4 (Hospitalized, requiring supplemental oxygen), % of patients",[1],(0.0) %
same,"Ordinal Score at Day 28 = 4 (Hospitalized, requiring supplemental oxygen), no. of patients",[1],0
same,"Ordinal Score at Day 28 = 7 (Not hospitalized), % of patients",[1],(30.8) %
same,"Ordinal Score at Day 28 = 7 (Not hospitalized), no. of patients",[1],4
same,No. of deaths by day 7,[2],1
same,No. of deaths by day 28,[2],1
same,"Ordinal Score at Day 7 = 1 (Death), % of patients",[2],(11.1) %
same,"Ordinal Score at Day 7 = 1 (Death), no. of patients",[2],1
same,"Ordinal Score at Day 7 = 2 (Hospitalized, on invasive mechanical ventilation or ECMO), % of patients",[2],(0.0) %
same,"Ordinal Score at Day 7 = 2 (Hospitalized, on invasive mechanical ventilation or ECMO), no. of patients",[2],0
same,"Ordinal Score at Day 7 = 3 (Hospitalized, on non-invasive ventilation or high flow oxygen devices), % of patients",[2],(11.1) %
same,"Ordinal Score at Day 7 = 3 (Hospitalized, on non-invasive ventilation or high flow oxygen devices), no. of patients",[2],1
same,"Ordinal Score at Day 7 = 4 (Hospitalized, requiring supplemental oxygen), % of patients",[2],(11.1) %
same,"Ordinal Score at Day 7 = 4 (Hospitalized, requiring supplemental oxygen), no. of patients",[2],1
same,"Ordinal Score at Day 7 = 5 (Hospitalized, not requiring supplemental oxygen), % of patients",[2],(0.0) %
same,"Ordinal Score at Day 7 = 5 (Hospitalized, not requiring supplemental oxygen), no. of patients",[2],0
same,"Ordinal Score at Day 7 = 7 (Not hospitalized), % of patients",[2],(66.7) %
same,"Ordinal Score at Day 7 = 7 (Not hospitalized), no. of patients",[2],6
same,"Ordinal Score at Day 28 = 1 (Death), % of patients",[2],(11.1) %
same,"Ordinal Score at Day 28 = 1 (Death), no. of patients",[2],1
same,"Ordinal Score at Day 28 = 2 (Hospitalized, on invasive mechanical ventilation or ECMO), % of patients",[2],(0.0) %
same,"Ordinal Score at Day 28 = 2 (Hospitalized, on invasive mechanical ventilation or ECMO), no. of patients",[2],0
same,"Ordinal Score at Day 28 = 3 (Hospitalized, on non-invasive ventilation or high flow oxygen devices), % of patients",[2],(11.1) %
same,"Ordinal Score at Day 28 = 3 (Hospitalized, on non-invasive ventilation or high flow oxygen devices), no. of patients",[2],1
same,"Ordinal Score at Day 28 = 4 (Hospitalized, requiring supplemental oxygen), % of patients",[2],(0.0) %
same,"Ordinal Score at Day 28 = 4 (Hospitalized, requiring supplemental oxygen), no. of patients",[2],0
same,"Ordinal Score at Day 28 = 7 (Not hospitalized), % of patients",[2],(77.8) %
same,"Ordinal Score at Day 28 = 7 (Not hospitalized), no. of patients",[2],7
same,No. of deaths by day 7,"overall, tradipitant N = 28",2
same,No. of deaths by day 28,"overall, tradipitant N = 28",4
same,"Ordinal Score at Day 7 = 1 (Death), % of patients","overall, tradipitant N = 28",(7.1) %
same,"Ordinal Score at Day 7 = 1 (Death), no. of patients","overall, tradipitant N = 28",2
same,"Ordinal Score at Day 7 = 2 (Hospitalized, on invasive mechanical ventilation or ECMO), % of patients","overall, tradipitant N = 28",(32.1) %
same,"Ordinal Score at Day 7 = 2 (Hospitalized, on invasive mechanical ventilation or ECMO), no. of patients","overall, tradipitant N = 28",9
same,"Ordinal Score at Day 7 = 3 (Hospitalized, on non-invasive ventilation or high flow oxygen devices), % of patients","overall, tradipitant N = 28",(14.3) %
same,"Ordinal Score at Day 7 = 3 (Hospitalized, on non-invasive ventilation or high flow oxygen devices), no. of patients","overall, tradipitant N = 28",4
same,"Ordinal Score at Day 7 = 4 (Hospitalized, requiring supplemental oxygen), % of patients","overall, tradipitant N = 28",(7.1) %
same,"Ordinal Score at Day 7 = 4 (Hospitalized, requiring supplemental oxygen), no. of patients","overall, tradipitant N = 28",2
same,"Ordinal Score at Day 7 = 5 (Hospitalized, not requiring supplemental oxygen), % of patients","overall, tradipitant N = 28",(7.1) %
same,"Ordinal Score at Day 7 = 5 (Hospitalized, not requiring supplemental oxygen), no. of patients","overall, tradipitant N = 28",2
same,"Ordinal Score at Day 7 = 7 (Not hospitalized), % of patients","overall, tradipitant N = 28",(32.1) %
same,"Ordinal Score at Day 7 = 7 (Not hospitalized), no. of patients","overall, tradipitant N = 28",9
same,"Ordinal Score at Day 28 = 1 (Death), % of patients","overall, tradipitant N = 28",(14.3) %
same,"Ordinal Score at Day 28 = 1 (Death), no. of patients","overall, tradipitant N = 28",4
same,"Ordinal Score at Day 28 = 2 (Hospitalized, on invasive mechanical ventilation or ECMO), % of patients","overall, tradipitant N = 28",(28.6) %
same,"Ordinal Score at Day 28 = 2 (Hospitalized, on invasive mechanical ventilation or ECMO), no. of patients","overall, tradipitant N = 28",8
same,"Ordinal Score at Day 28 = 3 (Hospitalized, on non-invasive ventilation or high flow oxygen devices), % of patients","overall, tradipitant N = 28",(3.6) %
same,"Ordinal Score at Day 28 = 3 (Hospitalized, on non-invasive ventilation or high flow oxygen devices), no. of patients","overall, tradipitant N = 28",1
same,"Ordinal Score at Day 28 = 4 (Hospitalized, requiring supplemental oxygen), % of patients","overall, tradipitant N = 28",(0.0) %
same,"Ordinal Score at Day 28 = 4 (Hospitalized, requiring supplemental oxygen), no. of patients","overall, tradipitant N = 28",0
same,"Ordinal Score at Day 28 = 7 (Not hospitalized), % of patients","overall, tradipitant N = 28",(53.6) %
same,"Ordinal Score at Day 28 = 7 (Not hospitalized), no. of patients","overall, tradipitant N = 28",15
same,Mortality rate,"tradipitant arm, interim analysis, placebo arm 16.6%, not statistically significant",14.2%
same,Patients showing clinical improvement (at least a 2 point improvement in the 7 point ordinal scale),"tradipitant arm, interim analysis, placebo arm 50%, not statistically significant",57%
same,Time to improvement analysis,"tradipitant vs placebo, FIG. 1, statistically significant at day 7",recover earlier than those receiving placebo
